Laboratory results: US20220378747A1, “TOPICAL COMPOSITION FOR TREATING SKIN WOUNDS” (priority 2021, published 2022)

What was measured:
Assay type in all cases: physicochemical
[1] = pH of 2M amino acid and 1M zinc gluconate solution in water (Example 11); settings: 2M amino acid and 1M zinc gluconate dissolved in water, before neutralization
Procedure: A formulation in powder form containing zinc and lysine which when dissolved in water forms a neutral solution was prepared as follows: Two M lysine and 1M zinc gluconate was dissolved in water to form a solution having a pH 7.4 and was neutralized to pH 7 with HCl. After the zinc and amino solution was neutralized, it was frozen immediately in liquid nitrogen. The frozen solution was then lyophilized for 24 hours to remove water.

[2] = 0.1M Zinc Gluconate and 0.1M Amino Acid Solutions: pH and precipitation on adjusting pH to 7.0; settings: for pH: 0.1M zinc gluconate and 0.1M amino acid solution, before adjustment; for Observations: 0.1M zinc gluconate and 0.1M amino acid, pH adjusted to 7.0 with NaOH
Text: There are seven standard amino acids with uncharged polar R groups which can hydrogen-bond with water. […] The basic amino acids, in which the R groups have a net positive charge at pH 7.0, all have six carbon atoms. […] Histidine is the only amino acid having buffering capacity near pH 7.0 with a pK′ of the R group near 7.0. All of the basic amino acids as shown in the following table are suitable for use in the present invention: […]

pH of Zinc Solutions = assay: pH of Zinc Solutions
Text: Other minerals which may be administered in the subject form include calcium, iron, magnesium, manganese and the like.

acidity of zinc gluconate neutralized by adding the amino acid and adjusting the pH to 7.0 [2] | pH [2] | Observations [2] | Molecule | other results
can be neutralized | – | – | N[C@@H](Cc1c[nH]cn1)C(=O)O [Histidine] | pH of solution [1]: 5.5
– | 4.9 | precipitates | N[C@@H](Cc1ccccc1)C(=O)O [Phenylalanine] | –
can be neutralized | – | does not precipitate | N[C@@H](CO)C(=O)O [Serine] | –
– | – | – | Zinc gluconate | pH (pH of Zinc Solutions; 0.1M solution): 5.85; pH (pH of Zinc Solutions; 0.2M solution): 5.65; neutralization with sodium hydroxide ([2]; zinc salt alone, without amino acid): cannot be neutralized with sodium hydroxide without precipitating the mixture
– | – | – | CC(=O)[O-].CC(=O)[O-].[Zn+2] [Zinc acetate] | pH (pH of Zinc Solutions; 0.1M solution): 6.7; pH (pH of Zinc Solutions; 0.2M solution): 6.6
can be neutralized | 4.8 | – | NC(=O)C[C@H](N)C(=O)O [Asparagine] | –
can be neutralized | 5.1 | – | C[C@H](N)C(=O)O [Alanine] | –
– | – | – | O=S(=O)([O-])[O-].[Zn+2] [Zinc sulfate] | pH (pH of Zinc Solutions; 0.1M solution): 5.7; pH (pH of Zinc Solutions; 0.2M solution): 5.45
can be neutralized | 5.0 | – | NC(=O)CC[C@H](N)C(=O)O [Glutamine] | –
can be neutralized | 5.1 | – | CC[C@H](C)[C@H](N)C(=O)O [Isoleucine] | –
– | – | – | [Cl-].[Cl-].[Zn+2] [Zinc chloride] | pH (pH of Zinc Solutions; 0.1M solution): 6.4; pH (pH of Zinc Solutions; 0.2M solution): 6.2
cannot be made | – | precipitates | N[C@@H](CS)C(=O)O [Cysteine] | –
can be neutralized | – | does not precipitate | C[C@@H](O)[C@H](N)C(=O)O [Threonine] | –
can be neutralized | 5.1 | – | CC(C)[C@H](N)C(=O)O [Valine] | –

Molecule | acidity of zinc gluconate neutralized by adding the amino acid and adjusting the pH to 7.0 [2] | pH [2] | Observations [2] | other results
NCCCC[C@H](N)C(=O)O [Lysine] | can be neutralized | 7.4 | – | pH of solution [1]: 7.4
CC(C)C[C@H](N)C(=O)O [Leucine] | – | 5.0 | pH adjusted to 7.0 with NaOH precipitates | –
CSCC[C@H](N)C(=O)O [Methionine] | – | – | pH adjusted to 7.0 with NaOH precipitates | –
N[C@@H](Cc1c[nH]c2ccccc12)C(=O)O [Tryptophan] | – | – | Not soluble | –
